Test results from patent EP1068199B1, “N-ARYLOXYETHYL-INDOLY-ALKYLAMINES FOR THE TREATMENT OF DEPRESSION” (Wyeth, priority 1998, dated 1999).

Assays:
[1] = biological target: T1, human 5-HT1A receptor subtype (Homo sapiens, UniProt P08908); test: 5-HT1A receptor binding, [3H]8-OH-DPAT competition on h5-HT1A.CHO cell membranes; details: [3H]8-OH-DPAT 1.5 nM
T1 construct: expressed in transfected cells
T1 sequence (P08908 1-422): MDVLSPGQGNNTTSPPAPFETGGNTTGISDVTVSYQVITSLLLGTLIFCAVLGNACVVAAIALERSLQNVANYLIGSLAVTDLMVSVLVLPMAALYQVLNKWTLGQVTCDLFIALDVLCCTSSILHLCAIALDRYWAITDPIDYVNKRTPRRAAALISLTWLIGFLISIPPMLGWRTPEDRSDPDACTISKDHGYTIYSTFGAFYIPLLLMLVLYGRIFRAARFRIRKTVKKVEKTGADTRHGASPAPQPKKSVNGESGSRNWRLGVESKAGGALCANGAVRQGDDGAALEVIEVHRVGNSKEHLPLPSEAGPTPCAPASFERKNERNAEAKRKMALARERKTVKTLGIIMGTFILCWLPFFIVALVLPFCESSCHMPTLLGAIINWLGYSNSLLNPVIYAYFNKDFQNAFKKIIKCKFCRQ
Description: A stable Chinese hamster ovary cell line expressing the human 5-HT1A receptor subtype (h5-HT1A.CHO cells) was employed throughout this study. Cells were maintained in DMEM supplemented with 10% fetal calf serum, non-essential amino acids and penicillin/ streptomycin.
Cells were grown to 95-100% confluency as a monolayer before membranes were harvested for binding studies. Cells were gently scraped from the culture plates, transferred to centrifuge tubes, and washed twice by centrifugation (2000 rpm for 10 min., 4°C) in buffer (50 mM Tris; pH 7.5). The resulting pellets were aliquoted and placed at -80°C. On the day of assay, the cells were thawed on ice, and resuspended in buffer. Studies were conducted using [^3H]8-OH-DPAT as the radioligand. The binding assay was performed in 96 well microtiter plates in a final total volume of 250 µL of buffer. […] Non-specific binding was determined in the presence of 10 µM 5HT. Saturation analysis was conducted by using [^3H]8-OH-DPAT at concentrations ranging from 0.3-30 nM. Following a 30 minute incubation at room temperature, the reaction was terminated by the addition of ice cold buffer and rapid filtration using a M-96 Brandel Cell Harvester (Gaithersburg, MD) through a GF/B filter presoaked for 30 minutes in 0.5% polyethyleneimine.

serotonin transporter = biological target: T2, serotonin transporter (Rattus norvegicus, UniProt P31652); test: Serotonin transporter affinity, 3H-paroxetine binding to frontal cortical membranes; parameters: species or system male Sprague-Dawley rats; details: read-out: ST (Ki, nM,)
T2 construct: frontal cortical membranes prepared from male Sprague-Dawley rats; from tissue; host or cells: rat frontal cortex membranes (male Sprague-Dawley)
T2 sequence (P31652 whole entry): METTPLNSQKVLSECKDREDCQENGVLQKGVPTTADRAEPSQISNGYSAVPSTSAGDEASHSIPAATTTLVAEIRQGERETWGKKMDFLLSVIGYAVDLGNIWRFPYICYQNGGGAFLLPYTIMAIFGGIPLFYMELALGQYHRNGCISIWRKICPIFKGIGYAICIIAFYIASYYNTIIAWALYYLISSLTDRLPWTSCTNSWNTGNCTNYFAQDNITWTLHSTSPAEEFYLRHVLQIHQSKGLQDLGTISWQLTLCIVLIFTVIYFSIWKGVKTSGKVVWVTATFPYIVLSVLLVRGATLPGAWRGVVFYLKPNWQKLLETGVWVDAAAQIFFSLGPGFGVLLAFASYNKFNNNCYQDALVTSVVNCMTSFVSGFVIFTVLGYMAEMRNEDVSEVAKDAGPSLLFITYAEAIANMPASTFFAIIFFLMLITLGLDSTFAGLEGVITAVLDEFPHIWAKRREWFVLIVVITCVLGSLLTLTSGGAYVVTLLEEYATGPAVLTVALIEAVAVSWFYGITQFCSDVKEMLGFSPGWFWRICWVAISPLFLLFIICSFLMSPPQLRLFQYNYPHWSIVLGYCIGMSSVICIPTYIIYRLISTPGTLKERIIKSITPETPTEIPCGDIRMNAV
Description: Briefly, frontal cortical membranes prepared from male Sprague-Dawley rats were incubated with ^3H-paroxetine (0.1 nM) for 60 min at 25°C. […] All reactions are terminated by the addition of ice cold Tris buffer followed by rapid filtration using a Tom Tech filtration device to separate bound from free ^3H-paroxetine.

5-HT1A cloned receptor = biological target: T3, 5-HT1A cloned receptor (Homo sapiens, UniProt P08908); test: [35S]-GTPγS binding assay on 5-HT1A cloned receptor membrane fragments; assay type: biochemical; details: maximum agonist response defined by excess 8-OH-DPAT
T3 construct: expressed in transfected cells
T3 sequence (P08908 1-422): T1 sequence (P08908 1-422)
Description: When needed, membranes were rapidly thawed, centrifuged at 40,000 x g for 10 minutes and resuspended at 4 °C for 10 minutes in assay buffer (25 mM HEPES, 3 mM MgCl2, 100 mM NaCI, 1 mM EDTA, 10 uM GDP, 500 mM DTT, pH 8.0). These membranes were then incubated for 30 min at 30 °C with [^35S]GTPgS (1 nM) in the presence of vehicle, test compound (one to eight concentrations), or excess 8-OH-DPAT to define maximum agonist response. All reactions are terminated by the addition of ice cold Tris buffer followed by rapid filtration using a Tom Tech® filtration device to separate bound from free [^35S]GTPgS.

## O=c1[nH]c2cccc(OCCNCCCc3c[nH]c4ccccc34)c2[nH]1 [Example 2, 4-{2-[3-(1H-Indol-3-yl)-propylamino]-ethoxy}-1,3-dihydrobenzoimidazole-2-one]
[1]
  Ki: 3.17 nM
Serotonin transporter
  Ki: 2.09 nM
5-HT1A cloned receptor
  Emax: 98.5%

## S=c1[nH]c2cccc(OCCNCCCc3c[nH]c4ccccc34)c2[nH]1 [Example 3, 4-{2-[3-(1H-Indol-3-yl)-propylamino]-ethoxy}-1,3-dihydrobenzoimidazole-2-thione]
[1]
  Ki: 7.75 nM
Serotonin transporter
  Ki: 21 nM

## O=C1Cc2c(OCCNCCCc3c[nH]c4ccccc34)ccc(F)c2N1 [Example 6, 7-Fluoro-4-{2-[3-(1H-indol-3-yl)-propylamino]-ethoxy}-1,3-dihydro-indol-2-one]
[1]
  Ki: 39.1 nM
Serotonin transporter
  Ki: 12 nM
5-HT1A cloned receptor
  Emax: 49.9%
